Measurements reported in patent US6916797B2, “α-arylethylpiperazine derivatives as neurokinin antagonists” (UCB, S.A., priority 2000, dated 2005).

What was measured:
[1] = test system: verapamil-sensitive L-type Ca2+ binding site; conditions: cited from earlier work
NK1 receptors [2] = target: T1, NK1 receptors (Homo sapiens, UniProt P25103); conditions: cited from earlier work
[3] = in vivo; cited from earlier work
[4] = test system: verapamil binding site of the L-type calcium channel; experiment: Inhibition of [3H]D888 binding to the verapamil binding site of the L-type calcium channel (rat cerebral cortex membranes); conditions: 10 μmol/l of test substance
Experimental: 200-250 g male Sprague-Dawley rats are sacrificed by decapitation. Cerebral cortices are quickly dissected on ice and homogenized in a 20 mmol/l Tris-HCl (pH 7.4) buffer containing 250 mmol/l sucrose (buffer A). The homogenate is centrifuged at 30,000 g for 15 min at 4° C. The resulting crude membrane pellet is resuspended in a 50 mmol/l Tris-HCl (pH 7.4) buffer and incubated 15 min at 37° C. before being centrifuged at 30,000×g for 15 min at 4° C. After two more washes under the same conditions, the final pellet is resuspended in buffer A at a protein concentration ranging from 15 to 25 mg/ml and stored in liquid nitrogen.
Binding experiments are essentially performed according to Reynolds J. et al., J. Pharmacol. Exp. Ther. (1986), 237, 731-738. (1986) with slight modifications.
Membranes (120-175 μg/assay) are incubated at 25° C. for 60 min in 0.5 ml of a 50 mmol/l Tris-HCl buffer (pH 7.4) containing 2 mmol/l MgCl2, 0.2 to 0.4×10-9 mol/l of [^3H]D888 (85 Ci/mmol; Amersham, Belgium) and 10 μmol/l of the test substance. The non specific binding (NSB) is defined as the residual binding observed in the presence 10 μM verapamil. Membrane-bound and -free radioligands are separated by rapid filtration through glass fiber filters (equivalent to Whatman GF/C or GF/B; VEL, Belgium) presoaked in 0.1% polyethyleneimine to reduce non specific binding. Samples and filters are rinsed by at least 6 ml of 50 mmol/l Tris-HCl (pH 7.4) buffer. […] The radioactivity trapped onto the filters is counted by liquid scintillation in a β-counter.
The inhibition of the radioligand specific binding is calculated as follows: [formula] • where BI and Bo represent the binding observed in the presence and absence of the test substance respectively; and • BNS is the non specific binding.
Data analysis is performed by a computerized non linear curve fitting method using a set of equations describing several binding models assuming competitive interactions between ligands (Weiland G. A. and P. B. Molinoff Life Science (1981), 29, 313-330; Molinoff P. et al. (1981) Life Sci., 29, 427-443).

NK1 receptors [5] = target: T1, NK1 receptors; experiment: Binding of [4,5-3H-Leu10] substance P to human recombinant NK1 receptors expressed in CHO cell membranes; design: host or cells: CHO cells; conditions: pIC50 = -log IC50, concentration inhibiting by 50% the specific binding of [4,5-3H] substance P; tested as the free base/salt given in c1
[6] = test system: isolated rat aorta contracted by 100 mM KCl; experiment: Effect of compound on isolated rat aorta contracted by 100 mM KCl; conditions: 10^−5 M; contraction by 100 mM KCl
Experimental: Rat thoracic aorta depolarized by 100 mM KCl develops a contraction induced by an influx of Ca^2+ into the smooth muscle cell. An inhibition of this contraction could predict a Ca^2+ antagonist activity.
The method was adapted from Polster P. et al., J. Pharmacol. Exp. Ther. (1990), 255, 593: rings of thoracic aorta were prepared from male Wistar rats (250-400 g) and mounted under an optimal resting tension of 2 g in 10 ml organ baths containing modified Krebs' solution (NaCl 112 mM, NaHCO3 25 mM, KCl 5 mM, MgSO4 1.2 mM, CaCl2 2.5 mM, KH2PO4 1 mM and glucose 11.5 mM, pH 7.4). The bathing solution was maintained at a temperature of 37° C. and gassed with 95% O2 and 5% CO2. Isometric contractions were measured with a force transducer connected to an amplifier. A computer system was used to control data acquisition and fluid circulation through electrovalves. Drugs were manually injected into the bath.
Each ring was allowed to equilibrate for 60 min in the modified Krebs' solution. […] After obtaining two reproducible control contractions, a 3rd contraction was induced and the test compound was added to the bathing medium for 2 hours. Only preparation in which the contractions were matched were used. Each tissue received only one concentration of the test compound. Appropriate control experiments were conducted in order to test the effect of the solvant.
To normalize data, the change in tension due to the drug was compared to the change of tension due to the solvant and expressed as percentage of the induced relaxation of the initial contraction. Raw data were processed by a computer system and the pD′2 value was calculated following the method of Van Rossum J. M. et al., Arch. Int. Pharmacodyn. Ther. (1963), 143, 299.

[7] = after oral administration; cited from earlier work

T1 sequence (P25103 whole entry): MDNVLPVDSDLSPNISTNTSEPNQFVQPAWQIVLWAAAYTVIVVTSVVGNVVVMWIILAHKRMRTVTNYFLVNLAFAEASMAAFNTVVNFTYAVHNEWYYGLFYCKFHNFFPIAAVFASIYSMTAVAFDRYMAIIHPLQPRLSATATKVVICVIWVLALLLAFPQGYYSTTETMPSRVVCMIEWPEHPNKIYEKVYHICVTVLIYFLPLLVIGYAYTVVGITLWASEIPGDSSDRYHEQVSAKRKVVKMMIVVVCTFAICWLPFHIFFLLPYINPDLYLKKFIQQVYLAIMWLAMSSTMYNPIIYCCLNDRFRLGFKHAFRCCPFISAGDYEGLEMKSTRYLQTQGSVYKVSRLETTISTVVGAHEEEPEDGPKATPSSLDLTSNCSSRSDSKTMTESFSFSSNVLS

Row | SMILES | % inhibition of [3H]D888 binding to the verapamil binding site of the L-type calcium channel [4] | IC50 (NK1 receptors [5]) [nM] | Result: effect of compound on isolated rat aorta contracted by 100 mM KCl [6] | other results
1 | COc1ccccc1CN[C@H]1C2CCN(CC2)[C@H]1C(c1ccccc1)c1ccccc1 [CP-96,345] | – | – | – | affinity for / interaction with the verapamil-sensitive L-type Ca2+ binding site [1]: significant affinity; selectivity for NK1 receptors with respect to NK2 and NK3 receptors (NK1 receptors [2]): good selectivity
2 | COc1ccccc1CN[C@H]1CCCN[C@H]1c1ccccc1 [CP-99,994] | – | – | – | outcome of first phase II clinical trials for asthma [3]: unsuccessful; affinity for / interaction with the verapamil-sensitive L-type Ca2+ binding site [1]: lower interaction; selectivity for NK1 receptors with respect to NK2 and NK3 receptors (NK1 receptors [2]): good NK1 selectivity
3 | Fc1ccc(C(COCc2cc(C(F)(F)F)cc(C(F)(F)F)c2)N2CCN(CCCCc3nnn[nH]3)CC2)cc1 (stereo not shown) [Compound 301] | + (+: inhibition comprised between 20 and 50%) | 15.8 | inactive à 10^−5 M | –
4 | CC(OCC(c1ccccc1)N1CCN(CCCCc2nnn[nH]2)CC1)c1cc(C(F)(F)F)cc(C(F)(F)F)c1 (stereo not shown) [Compound 303] | + (+: inhibition comprised between 20 and 50%) | 5.01 | inactive à 10^−5 M | –
5 | O=C(O)C1CCC(N2CCN(C(COCc3cc(C(F)(F)F)cc(C(F)(F)F)c3)c3ccccc3)CC2)CC1 (stereo not drawn) [Compound 312, cis- or trans-4-{4-[2-(3,5-Bis-trifluoromethyl-benzyloxy)-1-phenyl-ethyl]-piperazin-1-yl}-cyclohexanecarboxylic acid] | 0 (0: inhibition < 20%) | 25.1 | inactive à 10^−5 M | –
6 | COc1ccccc1CC(=N)N1C[C@@H]2C(=O)CCC(c3ccccc3)(c3ccccc3)[C@@H]2C1 [RP-67,580] | – | – | – | NK1 affinity (NK1 receptors [2]): some NK1 affinity
7 | COc1ccccc1[C@H](C)C(=O)N1C[C@@H]2[C@H](C1)C(c1ccccc1)(c1ccccc1)CC[C@@]2(O)c1ccccc1OC [RP-100,893] | – | – | – | activity in clinical trials for the treatment of migraine [7]: no better than placebo activity
